Measurements published in patent US6414000B1, “Substituted diphenyl oxazolin derivatives with insecticidal effect” (Bayer Aktiengesellschaft, priority 1997, dated 2002).
Marks after values point to notes of the source that are not given here.

Assays:
[1] = system: larvae of the mustard beetle (Phaedon cochleariae); experiment: Phaedon Larvae Test; type: in vivo; conditions: after 7 days, dipped cabbage leaves
Experimental: (§1) Solvent: 7 parts by weight of dimethylformamide
(§2) Emulsifier: 1 part by weight of alkylaryl polyglycol ether
(§3) To produce a suitable preparation of active compound, 1 part by weight of active compound is mixed with the stated amount of solvent and the stated amount of emulsifier, and the concentrate is diluted with water to the desired concentration.
After the desired period of time, the kill in % is determined. 100% means that all the beetle larvae have been killed; 0% means that none of the beetle larvae have been killed.

[2] = system: caterpillars of the diamond back moth (Plutella xylostella); experiment: Plutella Test; type: in vivo; conditions: active compound concentration 0.000032%, after 7 days, dipped cabbage leaves
Experimental: as §1, §2, §3
Cabbage leaves (Brassica oleracea) are treated by being dipped into the active compound preparation of the desired concentration and are infested with caterpillars of the diamond back moth (Plutella xylostella), while the leaves are still moist.
(§4) After the desired period of time, the activity in % is determined. 100% means that all caterpillars have been killed; 0% means that none of the caterpillars have been killed.

[3] = logP, n-octanol/water partition coefficient by reversed phase HPLC; type: physicochemical; conditions: reversed phase HPLC using H2O/CH3CN; for logP (A isomer): A isomer (possible geometric isomer); for logP (B isomer): B isomer (possible geometric isomer)
[4] = system: caterpillars of the owlet moth (Spodoptera frugiperda); experiment: Spodoptera frugiperda Test; type: in vivo; conditions: active compound concentration 0.0001%, after 7 days, dipped cabbage leaves
Experimental: Spodoptera frugiperda Test
as §1, §2, §3
Cabbage leaves (Brassica oleracea) are treated by being dipped into the active compound preparation of the desired concentration and populated with caterpillars of the owlet moth (Spodoptera frugiperda) while the leaves are still moist.
as §4

[5] = system: caterpillars of the cotton bollworm (Heliothis armigera); experiment: Heliothis armigera Test; type: in vivo; conditions: active compound concentration 0.00016%, after 6 days, dipped soy shoots
Experimental: as §1, §2, §3
Soy shoots (Glycine max) are treated by being dipped into the active compound preparation of the desired concentration and are populated with caterpillars of the cotton bollworm (Heliothis armigera), while the leaves are still moist.
After the desired period of time, the activity in % is determined. 100% means that all the caterpillars have been killed; 0% means that none of the caterpillars have been killed.

[6] = system: greenhouse red spider mite (Tetranychus urticae); experiment: Tetranychus Test (OP resistant/spray treatment); type: in vivo; conditions: active compound concentration 0.000032%, after 14 days, sprayed bean plants
Experimental: Tetranychus Test (OP resistant/spray treatment)
Solvent: 3 parts by weight of dimethylformamide
as §2, §3
Bean plants (Phaseolus vulgaris) which are heavily infested by all stages of the greenhouse red spider mite (Tetranychus urticae) are sprayed with an active compound preparation of the desired concentration.
After the desired period of time, the activity in % is determined. 100% means that all the spider mites have been killed; 0% means that none of the spider mites have been killed.

[7] = system: caterpillars of the owlet moth (Spodoptera exigua); experiment: Spodoptera exigua Test; type: in vivo; conditions: active compound concentration 0.000032%, after 6 days, dipped cabbage leaves
Experimental: as §1, §2, §3
Cabbage leaves (Brassica oleracea) are treated by being dipped into the active compound preparation of the desired concentration and populated with caterpillars of the owlet moth (Spodoptera exigua), while the leaves are still moist.
as §4

Lucilia cuprina larvae = experiment: Blowfly Larvae Test/development-inhibitory Action; type: in vivo; conditions: active compound concentration 100 ppm
Experimental: Blowfly Larvae Test/development-inhibitory Action
Test animals: Lucilia cuprina larvae
Solvent: Dimethyl sulphoxide
20 m of active compound are dissolved in 1 ml of dimethyl sulphoxide, and lower concentrations are prepared by dilution with distilled H2O .
About 20 Lucilia cuprina larvae are placed in a test tube containing about 1 cm^3 of horsemeat and 0.5 ml of the active compound preparation to be tested. The activity of the active compound preparation is determined after 24 hours and 48 hours. The test tubes are transferred into beakers whose bottom is covered with sand. After a further 2 days, the test tubes are removed and the pupae are counted.
The activity of the active compound preparation is judged by the number of flies which have hatched after 1.5 times the development period of an untreated control. 100% means that no flies have hatched; 0% means that all flies have hatched normally.

[8] = active compound concentration 0.01%

Row | SMILES | logP (A isomer) [3] | logP (B isomer) [3] | logP [3] | further results
1 | CCC(C)ON=C(C)COc1ccc(-c2ccc(C3COC(c4c(F)cccc4Cl)=N3)cc2)cc1 (mixture of isomers) [Example 3] | 5.90 (A isomer)* | 5.81 (B isomer)* | – | kill [1, 8]: 100%; kill [2]: 100%; kill [4]: 100%; kill [5]: 100%
2 | CON=CCOc1ccc(-c2ccc(C3COC(c4c(F)cccc4F)=N3)cc2)cc1 (mixture of isomers) [Example 8] | 3.97 (A isomer)* | 4.14 (B isomer)* | – | –
3 | CCON=CCOc1ccc(-c2ccc(C3COC(c4c(F)cccc4F)=N3)cc2)cc1 (mixture of isomers) [Example 16] | 4.35 (A isomer)* | 4.53 (B isomer)* | – | –
4 | CCON=C(COc1ccc(-c2ccc(C3COC(c4c(F)cccc4F)=N3)cc2)cc1)C(C)(C)C=C(Cl)Cl (mixture of isomers) [Example 42] | 6.48 | 6.37 | – | –
5 | CCCCON=C(C)C(C)Oc1ccc(-c2ccc(C3COC(c4c(F)cccc4Cl)=N3)cc2)cc1 (mixture of isomers) [Example 49] | 6.23 | 6.09 | – | –
6 | CC(=NOCC(C)C)C(C)Oc1ccc(-c2ccc(C3COC(c4c(F)cccc4F)=N3)cc2)cc1 (mixture of isomers) [Example 51] | 5.93 | 5.79 | – | –
7 | CCCCON=C(C)C(C)Oc1ccc(-c2ccc(C3COC(c4c(F)cccc4F)=N3)cc2)cc1 (mixture of isomers) [Example 52] | 5.94 | 5.80 | – | –
8 | CC(COc1ccc(-c2ccc(C3COC(c4c(F)cccc4Cl)=N3)cc2)cc1)=NOCC(C)C (mixture of isomers) [Example 54] | 5.85 | 5.76 | – | –
9 | CCCCON=C(C)COc1ccc(-c2ccc(C3COC(c4c(F)cccc4F)=N3)cc2)cc1 (mixture of isomers) [Example 55] | 5.58 | 5.51 | – | –
10 | CCC(C)ON=C(C)COc1ccc(-c2ccc(C3COC(c4c(F)cccc4F)=N3)cc2)cc1 (mixture of isomers) [Example 56] | 5.61 | 5.54 | – | –
11 | CCCCON=C(C)C(C)Oc1ccc(-c2ccc(C3COC(c4ccccc4Cl)=N3)cc2)cc1Cl (mixture of isomers) [Example 61] | 6.84 | 6.67 | – | –
12 | CCCCON=C(C)C(C)Oc1ccc(-c2ccc(C3COC(c4c(F)cccc4F)=N3)cc2)cc1Cl (mixture of isomers) [Example 63] | 6.37 | 6.22 | – | –
13 | CON=C(C)C(C)Oc1ccc(-c2ccc(C3COC(c4ccccc4Br)=N3)cc2)cc1 (mixture of isomers) [Example 92] | 5.08 | 5.18 | – | –
14 | Fc1cccc(F)c1C1=NC(c2ccc(-c3ccc(OCc4ccc(C(F)(F)F)cc4)cc3)cc2)CO1 (centres unmarked) [Example 1, 2-(2,6-difluorophenyl)-4-[4′-(4″-trifluoromethylbenzyl-oxy)-biphenyl-4-yl]-1,3-oxazoline] | – | – | – | kill [6]: 98%; kill [1, 8]: 100%; kill [2]: 85%; kill [4]: 100%; kill [7]: 80%; kill [5]: 100%
15 | CC(=NOC(C)C)C(C)(C)Oc1ccc(-c2ccc(C3COC(c4c(F)cccc4Cl)=N3)cc2)cc1 (centres unmarked) [Example 4] | – | – | 6.30 | kill ([1]; active compound concentration 0.00001%): 100%; kill [4]: 100%
16 | CC(C)Oc1ccc(-c2ccc(C3COC(c4ccccc4Br)=N3)cc2)cc1 (centres unmarked) [Example 5] | – | – | – | activity (development-inhibitory action, flies not hatched) (Lucilia cuprina larvae): 100%
17 | ClC1(Cl)CC1COc1ccc(-c2ccc(C3COC(c4ccccc4I)=N3)cc2)cc1 (centres unmarked) [Example 22] | – | – | 5.43 | –
18 | C#CC(C)Oc1ccc(-c2ccc(C3COC(c4c(F)cccc4F)=N3)cc2)cc1 (centres unmarked) [Example 36] | – | – | 4.15 | –

Row | SMILES | logP (A isomer) [3] | logP (B isomer) [3] | logP [3] | further results
19 | C#CC(C)Oc1ccc(-c2ccc(C3COC(c4ccccc4Cl)=N3)cc2)cc1 (centres unmarked) [Example 37] | – | – | 4.49 | –
20 | CCON=CC(C)(C)Oc1ccc(-c2ccc(C3COC(c4c(F)cccc4F)=N3)cc2)cc1 (centres unmarked) [Example 53] | – | – | 5.00 | –
21 | CON=CC(C)(C)Oc1ccc(-c2ccc(C3COC(c4c(F)cccc4F)=N3)cc2)cc1 (centres unmarked) [Example 57] | – | – | 4.62 | –
22 | CC(=O)C(C)Oc1ccc(-c2ccc(C3COC(c4ccccc4Br)=N3)cc2)cc1 (centres unmarked) [Example 68] | – | – | 4.13 | –
23 | CC(O)C(C)Oc1ccc(-c2ccc(C3COC(c4ccccc4Br)=N3)cc2)cc1 (centres unmarked) [Example 91] | – | – | 3.74 | –
24 | CC(=O)C(C)Oc1ccc(-c2ccc(C3COC(c4ccccc4F)=N3)cc2)cc1 (centres unmarked) [Example 100] | – | – | 3.79 | –
25 | CC(C)(C=O)Oc1ccc(-c2ccc(C3COC(c4c(F)cccc4F)=N3)cc2)cc1 (centres unmarked) [Example 102] | – | – | 4.08 | –
26 | CC(C)Oc1ccc(-c2ccc(C3COC(c4ccccc4F)=N3)cc2)cc1 (centres unmarked) [Example 107] | – | – | 4.65 | –
27 | CC(C)COc1ccc(-c2ccc(C3COC(c4ccccc4F)=N3)cc2)cc1 (centres unmarked) [Example 108] | – | – | 5.34 | –
28 | CON=CCOc1ccc(-c2ccc(C3COC(c4c(F)cccc4Cl)=N3)cc2)cc1 (centres unmarked) [Example 112] | – | – | 4.27 | –
29 | CCON=CCOc1ccc(-c2ccc(C3COC(c4c(F)cccc4Cl)=N3)cc2)cc1 (centres unmarked) [Example 113] | – | – | 4.65 | –
30 | CON=CCOc1ccc(-c2ccc(C3COC(c4c(F)cccc4F)=N3)cc2)cc1Cl (centres unmarked) [Example 114] | – | – | 4.33 | –
31 | CCON=CCOc1ccc(-c2ccc(C3COC(c4c(F)cccc4F)=N3)cc2)cc1Cl (centres unmarked) [Example 115] | – | – | 4.71 | –
32 | CON=CCOc1ccc(-c2ccc(C3COC(c4ccccc4Cl)=N3)cc2)cc1Cl (centres unmarked) [Example 116] | – | – | 4.72 | –
33 | CCON=CCOc1ccc(-c2ccc(C3COC(c4ccccc4Cl)=N3)cc2)cc1Cl (centres unmarked) [Example 117] | – | – | 5.08 | –
34 | Cc1cc(-c2ccc(C3COC(c4c(F)cccc4F)=N3)cc2)ccc1OCC(F)(F)F (centres unmarked) [Example 119] | – | – | 4.80 | –
35 | Cc1cc(-c2ccc(C3COC(c4c(F)cccc4OCC(F)(F)F)=N3)cc2)ccc1OCC(F)(F)F (centres unmarked) [Example 120] | – | – | 4.91 | –
